This note sets out measurements from patent publication US10485846B2, “Collagenase-derived peptides promote tissue regeneration and wound healing” (Tufts University, priority 2014, dated 2019).

Assay [1] deals with adult human keratinocytes. In words: Scratch wound closure / post-injury migration of keratinocyte monolayer. The assay is classed as cell-based. The settings on record: 10 nM peptide, monitored 0, 1, 3 and 5 hours post-injury (FIG. 5). The protocol:
Adult human keratinocytes were plated into glass-bottom well plates at high density. Scratch wounds were made in the cell monolayer 24 h post-plating. The peptides dissolved in keratinocyte growth media (10 nM) were applied immediately after wounding. Wound closure was monitored at 0, 1, 3 and 5 hours post-injury. Dashed line outlines the wounds. Representative images of wounds treated with TSN2 and TSN6 are shown.
Human epidermis-derived keratinocytes were plated at a post-confluent density prior to mechanical injury in the presence or absence of bioactive wound healing peptides or control entities.

Assay [2] concerns cranial cutaneous wounds. The experiment in a line: Cranial cutaneous excisional wound healing in cyclophosphamide-treated mice (impaired healing model). It counts as in vivo, Balb/c mice. As to conditions: peptide in CMC applied daily days 1-5, day 6 post-injury; vs untreated control or collagenase (FIGS. 7-8). How it is done: Balb/c mice were pre-treated with cyclophosphamide at 150 mg/kg 3 days prior to injury and with 100 mg/kg cyclophosphamide 1 day before injury. Cranial cutaneous wounds were created using 4 mm punch biopsy tool and immediately covered with adherent transparent dressing (TEGADERM™). The peptides were prepared fresh daily and injected under the dressing on days 1-5 post injury. On day 6 after wounding the animals were sacrificed according to Division of Laboratory Animal Medicine (DLAM) approved procedures. Wounds together with surrounding healthy tissues were excised, cut in half along the midline and either fixed in 4% phosphate buffered formaldehyde or frozen in OCT for further processing. […]
Wounds were created, treated as described in FIG. 6 and scored in a blind manner according to the grading described in Table 2. * indicates statistical significance of findings (p<0.05).
Wounds were created and treated as described in FIG. 1. Wound epithelialization was measured at day 6 post wounding. ** indicate statistical significance of findings (p<0.05). […]
Following cyclophosphamide treatment, animals were injured and then wounds treated/covered. Test entities were coded so that the nature of the experiment was blinded to the investigator; and, each specimen was evaluated and scored blindly according to the wound healing system shown in Table 2, prior to unmasking the experimental code. […]

In assay [3] the test system is adult human keratinocytes. In words: Adult human keratinocyte proliferation (coulter counter cell count). It counts as cell-based. As to conditions: FIG. 3B, PK vs. peptides. How it is done:
Adult human keratinocytes were plated at low density in multi-well plates and treated with 10 nM peptides (FIG. 3A) or 1-100 nM peptides (FIG. 3B) every other day. At day 7 post-plating the cells were counted using a coulter counter. Cell proliferation relative to control (FIG. 3A) or absolute cell number grown (FIG. 3B) are shown. *statistical significance (p<0.05).
(§1) In our efforts aimed at characterizing the growth-promoting, migration-enhancing and angiogenesis-inducing activities embodied in SANTYL® collagenase Ointment and in an effort focused on contrasting the efficacy of collagenase vs. the newly-discovered SANTYL® collagenase API-derived bioactive wound healing peptide(s), we continue to perform a battery of pre-clinical tests and trials using the well-established models of injury and repair developed, here, at Tufts University School of Medicine and the Center for Innovations in Wound Healing Research. To these ends, we took advantage of the 2D and 3D injury/repair models developed to quantify cellular responses to injury. […] This is especially noteworthy since these peptides not only promote vascular endothelial growth but, adult human keratinocyte growth.

In assay [4] the test system is human microvascular endothelial cells. In words: Human microvascular endothelial cell proliferation (coulter counter cell count). It counts as cell-based. The settings on record: for endothelial cell proliferation relative to control: 100 nM peptides every other day, counted day 5 post-plating (FIG. 2); for endothelial growth-promoting activity compared with fibroblast growth factor 2 (FGF2): FIG. 2. The protocol: Human microvascular endothelial cells were plated at low density in multi-well plates and treated with 100 nM peptides every other day. At day 5 post-plating the cells were counted using a coulter counter. Cell proliferation relative to control is shown. *statistical significance (p<0.05).
as §1

The test system is the same in assay [5]. In words: In vitro angiogenesis / tube formation on growth factor-reduced Matrigel. The settings on record: 100 nM peptide in Matrigel and media (FIG. 4). The assay is classed as cell-based. How it is done: ECM-derived peptides were dissolved in growth factor-reduced Matrigel at 100 nM, the matrix was allowed to polymerize, human microvascular endothelial cells were plated either in control low serum containing media or media containing 100 nM peptides. Representative images of cells treated with endothelial ECM-derived peptides are shown.
Function-specific domains present within TSN1/2 and the newly-engineered “combinatorial” peptides present within TSN 10 are able to promote in vitro angiogenesis. TSN peptides promote morphogenesis and angiogenic activation by stimulating migration, proliferation and tube formation; peptide-stimulated endothelial tubes are more numerous, of greater length, having more branch points then control treated endothelial cell cultures.

For the sequence “HSPDIQLQKGLTFEPIQIK (listed as Homo sapiens) [TSN6, 19 aa peptide; origin Multimerin-1 Coiled coil domain]”, in assay [1], the “keratinocyte migration in response to scratch injury (wound closure)” value is given as “marked migration-enhancing activity”. In addition, the “wound healing in vivo (wound score, Table 2 grading; wound closure)” value in assay [2] is listed as “markedly stimulated to heal wounds”.
As for “MENAELDVPIQSVFTR (listed as Homo sapiens) [TSN2, 16 aa peptide; origin Thrombospondin-1 N-terminal domain]”, in assay [1], the “keratinocyte migration in response to scratch injury (wound closure)” value is recorded as “marked migration-enhancing activity”. The “keratinocyte growth-promoting activity compared with PK SANTYL collagenase API” value in assay [3] is listed as “completely accounting for the keratinocyte growth-promoting activity present within PK SANTYL collagenase API”. Moreover, in assay [4], the “endothelial cell proliferation relative to control” value is “stimulate human dermally-derived microvascular endothelial cell growth in vitro” and the “endothelial growth-promoting activity compared with fibroblast growth factor 2 (FGF2)” value was “exceed the growth-promoting activity embodied in fibroblast growth factor 2 (FGF2)”. In addition, the “in vitro angiogenesis (tube formation)” value in assay [5] is “angiogenesis-inducing activity”.
Regarding “NFQGVQNRFVFGTP (listed as Homo sapiens) [TSN1, 14 aa peptide; origin Thrombospondin-1 Laminin G-like domain]”, in assay [3], the “keratinocyte growth-promoting activity compared with PK SANTYL collagenase API” value is “completely accounting for the keratinocyte growth-promoting activity present within PK SANTYL collagenase API”. Besides, in assay [4], the “endothelial cell proliferation relative to control” value is listed as “stimulate human dermally-derived microvascular endothelial cell growth in vitro” and the “endothelial growth-promoting activity compared with fibroblast growth factor 2 (FGF2)” value was “exceed the growth-promoting activity embodied in fibroblast growth factor 2 (FGF2)”. In addition, in assay [5], the “in vitro angiogenesis (tube formation)” value is on record as “markedly promoted in vitro angiogenesis”.
As to “RPGPSPEGTGQSYNYR (listed as Homo sapiens) [TSN8, 16 aa peptide]”, the “in vitro angiogenesis (tube formation)” value in assay [5] was “markedly promoted in vitro angiogenesis”.
“TGQSYNQYSQRPYLGVYVFK (listed as Homo sapiens) [TSN10, 20 aa combinatorial peptide; Combination of Thrombospondin and multimerin peptides]”: the “keratinocyte growth-promoting activity compared with PK SANTYL collagenase API” value in assay [3] is recorded as “completely accounting for the keratinocyte growth-promoting activity present within PK SANTYL collagenase API”. For the same sequence, the “in vitro angiogenesis (tube formation)” value in assay [5] is listed as “markedly promoted in vitro angiogenesis”.
